Here are results for 12 compounds from ChEMBL document CHEMBL1131884, “Dicationic 2-fluorenonylcarbapenems: potent anti-MRS agents with improved solubility and pharmacokinetic properties” (Bioorg Med Chem Lett, 1999).

The target in the first experiment is T1, MecA (Staphylococcus aureus, UniProt Q7DHH4).
T1 sequence (Q7DHH4 whole entry): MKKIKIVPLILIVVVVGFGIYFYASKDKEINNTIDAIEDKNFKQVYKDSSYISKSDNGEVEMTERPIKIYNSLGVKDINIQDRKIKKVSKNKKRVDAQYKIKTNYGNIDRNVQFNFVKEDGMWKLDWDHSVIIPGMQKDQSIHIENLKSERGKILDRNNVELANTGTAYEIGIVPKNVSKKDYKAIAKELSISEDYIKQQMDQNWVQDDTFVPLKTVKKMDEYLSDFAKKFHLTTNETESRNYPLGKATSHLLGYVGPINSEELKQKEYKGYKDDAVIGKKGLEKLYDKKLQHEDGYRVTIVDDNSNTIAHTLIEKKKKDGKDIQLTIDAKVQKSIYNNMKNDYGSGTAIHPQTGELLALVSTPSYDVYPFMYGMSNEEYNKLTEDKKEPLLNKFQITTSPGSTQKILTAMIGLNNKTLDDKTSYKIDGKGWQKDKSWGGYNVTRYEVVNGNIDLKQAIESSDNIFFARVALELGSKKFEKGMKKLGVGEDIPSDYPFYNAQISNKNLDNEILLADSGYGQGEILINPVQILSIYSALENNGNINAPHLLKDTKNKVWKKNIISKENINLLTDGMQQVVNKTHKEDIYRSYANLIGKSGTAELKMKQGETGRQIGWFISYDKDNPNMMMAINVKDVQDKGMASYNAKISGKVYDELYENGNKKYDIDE
In words: Binding affinity against PBP2a receptor by competition analysis with [3H]benzylpenicillin using cell membrane fractions from the MRSA COL strain.
In general, IC50 refers to the midpoint of a concentration-inhibition curve. Higher therefore signals a need for much substance. Take `C[C@@H](O)[C@H]1C(=O)N2C(C(=O)O)=C(c3ccc4c(c3)-c3ccc(C[N+]56CC[N+](CC(=O)Nc7cccnc7)(CC5)CC6)cc3C4=O)[C@H](C)[C@H]12.[Cl-].[Cl-]`: the IC50 was 611 nM.

The compound `C[C@@H](O)[C@H]1C(=O)N2C(C(=O)O)=C(c3ccc4c(c3)-c3ccc(C[N+]56CC[N+](CC(=O)NC7CCCC7)(CC5)CC6)cc3C4=O)[C@H](C)[C@H]12.[Cl-].[Cl-]` had an IC50 of 1410 nM.

Turning to `C[C@@H](O)[C@H]1C(=O)N2C(C(=O)O)=C(c3ccc4c(c3)-c3ccc(C[N+]56CC[N+](CC(=O)Nc7cccc(C(N)=O)c7)(CC5)CC6)cc3C4=O)[C@H](C)[C@H]12.[Cl-].[Cl-]`, the IC50 is 1220 nM.

`CC(=O)c1cccc(NC(=O)C[N+]23CC[N+](Cc4ccc5c(c4)C(=O)c4ccc(C6=C(C(=O)O)N7C(=O)[C@H]([C@@H](C)O)[C@H]7[C@H]6C)cc4-5)(CC2)CC3)c1.[Cl-].[Cl-]` had an IC50 of 1290 nM.

The compound `COc1ccc(NC(=O)C[N+]23CC[N+](Cc4ccc5c(c4)C(=O)c4ccc(C6=C(C(=O)O)N7C(=O)[C@H]([C@@H](C)O)[C@H]7[C@H]6C)cc4-5)(CC2)CC3)cc1.[Cl-].[Cl-]` gave an IC50 of 1190 nM.

The compound `C[C@@H](O)[C@H]1C(=O)N2C(C(=O)O)=C(c3ccc4c(c3)-c3ccc(C[N+]56CC[N+](CC(=O)Nc7ccc(CO)cc7)(CC5)CC6)cc3C4=O)[C@H](C)[C@H]12.[Cl-].[Cl-]` showed an IC50 of 2670 nM.

For `C[C@@H](O)[C@H]1C(=O)N2C(C(=O)O)=C(c3ccc4c(c3)-c3ccc(C[N+]56CC[N+](CC(=O)N(C)c7ccccc7)(CC5)CC6)cc3C4=O)[C@H](C)[C@H]12.[Cl-].[Cl-]`, the IC50 is 1230 nM.

For the compound `C[C@@H](O)[C@H]1C(=O)N2C(C(=O)O)=C(c3ccc4c(c3)-c3ccc(C[N+]56CC[N+](CC(=O)Nc7ccc(C#N)cc7)(CC5)CC6)cc3C4=O)[C@H](C)[C@H]12.[Cl-].[Cl-]`, the IC50 was 1410 nM.

`C[C@@H](O)[C@H]1C(=O)N2C(C(=O)O)=C(c3ccc4c(c3)-c3ccc(C[N+]56CC[N+](CC(=O)NC(C)(C)C)(CC5)CC6)cc3C4=O)[C@H](C)[C@H]12.[Cl-].[Cl-]` gave an IC50 of 3430 nM.

For `C[C@@H](O)[C@H]1C(=O)N2C(C(=O)O)=C(c3ccc4c(c3)-c3ccc(C[N+]56CC[N+](CC(=O)Nc7ccc(O)cc7)(CC5)CC6)cc3C4=O)[C@H](C)[C@H]12.[Cl-].[Cl-]`, the half-maximal inhibitory concentration (IC50) is 652 nM.

The compound `C[C@@H](O)[C@H]1C(=O)N2C(C(=O)O)=C(c3ccc4c(c3)-c3ccc(C[N+]56CC[N+](Cc7ccccc7)(CC5)CC6)cc3C4=O)[C@H](C)[C@H]12.[Cl-].[Cl-]` showed an IC50 of 3250 nM.

In turn, `C[C@@H](O)[C@H]1C(=O)N2C(C(=O)O)=C(c3ccc4c(c3)-c3ccc(C[N+]56CC[N+](CC(=O)Nc7nccs7)(CC5)CC6)cc3C4=O)[C@H](C)[C@H]12.[Cl-].[Cl-]` had an IC50 of 853 nM.

A further experiment has as its system Staphylococcus sp. The experiment in a line: Antibacterial activity against methicillin-resistant coagulase negative Staphylococci (MRCNS). In kind it is functional.
Usually MIC50 stands for an inhibitory concentration at the 50% level, which refers to growth in some studies and to a panel of isolates in others. What is called MIC90 is the lowest concentration that inhibits either 90% of growth or 90% of the strains tested, depending on the study. `C[C@@H](O)[C@H]1C(=O)N2C(C(=O)O)=C(c3ccc4c(c3)-c3ccc(C[N+]56CC[N+](CC(=O)Nc7cccnc7)(CC5)CC6)cc3C4=O)[C@H](C)[C@H]12.[Cl-].[Cl-]` registered an MIC50 of 2 µg/mL and an MIC90 of 4 µg/mL.

In the case of `C[C@@H](O)[C@H]1C(=O)N2C(C(=O)O)=C(c3ccc4c(c3)-c3ccc(C[N+]56CC[N+](CC(=O)NC7CCCC7)(CC5)CC6)cc3C4=O)[C@H](C)[C@H]12.[Cl-].[Cl-]`, the MIC50 worked out at 4 µg/mL and the MIC90 was determined as 8 µg/mL.

As for `C[C@@H](O)[C@H]1C(=O)N2C(C(=O)O)=C(c3ccc4c(c3)-c3ccc(C[N+]56CC[N+](CC(=O)Nc7cccc(C(N)=O)c7)(CC5)CC6)cc3C4=O)[C@H](C)[C@H]12.[Cl-].[Cl-]`, the MIC50 is 1 µg/mL and the MIC90 was determined as 2 µg/mL.

The compound `CC(=O)c1cccc(NC(=O)C[N+]23CC[N+](Cc4ccc5c(c4)C(=O)c4ccc(C6=C(C(=O)O)N7C(=O)[C@H]([C@@H](C)O)[C@H]7[C@H]6C)cc4-5)(CC2)CC3)c1.[Cl-].[Cl-]` came in with an MIC50 of 1 µg/mL and an MIC90 of 4 µg/mL.

`COc1ccc(NC(=O)C[N+]23CC[N+](Cc4ccc5c(c4)C(=O)c4ccc(C6=C(C(=O)O)N7C(=O)[C@H]([C@@H](C)O)[C@H]7[C@H]6C)cc4-5)(CC2)CC3)cc1.[Cl-].[Cl-]` gave an MIC50 of 1 µg/mL and an MIC90 of 4 µg/mL.

On to `C[C@@H](O)[C@H]1C(=O)N2C(C(=O)O)=C(c3ccc4c(c3)-c3ccc(C[N+]56CC[N+](CC(=O)Nc7ccc(CO)cc7)(CC5)CC6)cc3C4=O)[C@H](C)[C@H]12.[Cl-].[Cl-]`, for which the MIC50 is 1 µg/mL and the MIC90 was 4 µg/mL.

Compound `C[C@@H](O)[C@H]1C(=O)N2C(C(=O)O)=C(c3ccc4c(c3)-c3ccc(C[N+]56CC[N+](CC(=O)N(C)c7ccccc7)(CC5)CC6)cc3C4=O)[C@H](C)[C@H]12.[Cl-].[Cl-]` came in with an MIC50 of 8 µg/mL and an MIC90 of 16 µg/mL.

Consider `C[C@@H](O)[C@H]1C(=O)N2C(C(=O)O)=C(c3ccc4c(c3)-c3ccc(C[N+]56CC[N+](CC(=O)Nc7ccc(C#N)cc7)(CC5)CC6)cc3C4=O)[C@H](C)[C@H]12.[Cl-].[Cl-]`, for which the MIC50 amounted to 1 µg/mL and the MIC90 came out at 4 µg/mL.

In turn, `C[C@@H](O)[C@H]1C(=O)N2C(C(=O)O)=C(c3ccc4c(c3)-c3ccc(C[N+]56CC[N+](CC(=O)NC(C)(C)C)(CC5)CC6)cc3C4=O)[C@H](C)[C@H]12.[Cl-].[Cl-]` showed an MIC50 of 4 µg/mL and an MIC90 of 8 µg/mL.

Consider `C[C@@H](O)[C@H]1C(=O)N2C(C(=O)O)=C(c3ccc4c(c3)-c3ccc(C[N+]56CC[N+](CC(=O)Nc7ccc(O)cc7)(CC5)CC6)cc3C4=O)[C@H](C)[C@H]12.[Cl-].[Cl-]`, for which the MIC50 came to 1 µg/mL and the MIC90 was found to be 4 µg/mL.

As to `C[C@@H](O)[C@H]1C(=O)N2C(C(=O)O)=C(c3ccc4c(c3)-c3ccc(C[N+]56CC[N+](Cc7ccccc7)(CC5)CC6)cc3C4=O)[C@H](C)[C@H]12.[Cl-].[Cl-]`, the MIC50 was 2 µg/mL and the MIC90 was 8 µg/mL.

The compound `C[C@@H](O)[C@H]1C(=O)N2C(C(=O)O)=C(c3ccc4c(c3)-c3ccc(C[N+]56CC[N+](CC(=O)Nc7nccs7)(CC5)CC6)cc3C4=O)[C@H](C)[C@H]12.[Cl-].[Cl-]` registered an MIC50 of 4 µg/mL and an MIC90 of 8 µg/mL.

The test system of a further experiment is Staphylococcus aureus. In words: Antibacterial activity against methicillin-resistant Staphylococcus aureus (MRSA). In kind it is functional.
Consider `C[C@@H](O)[C@H]1C(=O)N2C(C(=O)O)=C(c3ccc4c(c3)-c3ccc(C[N+]56CC[N+](CC(=O)Nc7cccnc7)(CC5)CC6)cc3C4=O)[C@H](C)[C@H]12.[Cl-].[Cl-]`, for which the MIC50 was 1 µg/mL and the MIC90 was found to be 2 µg/mL.

As to `C[C@@H](O)[C@H]1C(=O)N2C(C(=O)O)=C(c3ccc4c(c3)-c3ccc(C[N+]56CC[N+](CC(=O)NC7CCCC7)(CC5)CC6)cc3C4=O)[C@H](C)[C@H]12.[Cl-].[Cl-]`, the MIC50 came out at 2 µg/mL and the MIC90 was 4 µg/mL.

`C[C@@H](O)[C@H]1C(=O)N2C(C(=O)O)=C(c3ccc4c(c3)-c3ccc(C[N+]56CC[N+](CC(=O)Nc7cccc(C(N)=O)c7)(CC5)CC6)cc3C4=O)[C@H](C)[C@H]12.[Cl-].[Cl-]` gave an MIC50 of 1 µg/mL and an MIC90 of 1 µg/mL.

`CC(=O)c1cccc(NC(=O)C[N+]23CC[N+](Cc4ccc5c(c4)C(=O)c4ccc(C6=C(C(=O)O)N7C(=O)[C@H]([C@@H](C)O)[C@H]7[C@H]6C)cc4-5)(CC2)CC3)c1.[Cl-].[Cl-]` gave an MIC50 of 1 µg/mL and an MIC90 of 2 µg/mL.

As to `COc1ccc(NC(=O)C[N+]23CC[N+](Cc4ccc5c(c4)C(=O)c4ccc(C6=C(C(=O)O)N7C(=O)[C@H]([C@@H](C)O)[C@H]7[C@H]6C)cc4-5)(CC2)CC3)cc1.[Cl-].[Cl-]`, the MIC50 turned out to be 1 µg/mL and the MIC90 was 1 µg/mL.

`C[C@@H](O)[C@H]1C(=O)N2C(C(=O)O)=C(c3ccc4c(c3)-c3ccc(C[N+]56CC[N+](CC(=O)Nc7ccc(CO)cc7)(CC5)CC6)cc3C4=O)[C@H](C)[C@H]12.[Cl-].[Cl-]` had an MIC50 of 1 µg/mL and an MIC90 of 2 µg/mL.

In the case of `C[C@@H](O)[C@H]1C(=O)N2C(C(=O)O)=C(c3ccc4c(c3)-c3ccc(C[N+]56CC[N+](CC(=O)N(C)c7ccccc7)(CC5)CC6)cc3C4=O)[C@H](C)[C@H]12.[Cl-].[Cl-]`, the MIC50 is 4 µg/mL and the MIC90 was found to be 4 µg/mL.

In turn, `C[C@@H](O)[C@H]1C(=O)N2C(C(=O)O)=C(c3ccc4c(c3)-c3ccc(C[N+]56CC[N+](CC(=O)Nc7ccc(C#N)cc7)(CC5)CC6)cc3C4=O)[C@H](C)[C@H]12.[Cl-].[Cl-]` had an MIC50 of 1 µg/mL and an MIC90 of 2 µg/mL.

`C[C@@H](O)[C@H]1C(=O)N2C(C(=O)O)=C(c3ccc4c(c3)-c3ccc(C[N+]56CC[N+](CC(=O)NC(C)(C)C)(CC5)CC6)cc3C4=O)[C@H](C)[C@H]12.[Cl-].[Cl-]`: the MIC50 stood at 2 µg/mL and the MIC90 turned out to be 4 µg/mL.

For the compound `C[C@@H](O)[C@H]1C(=O)N2C(C(=O)O)=C(c3ccc4c(c3)-c3ccc(C[N+]56CC[N+](CC(=O)Nc7ccc(O)cc7)(CC5)CC6)cc3C4=O)[C@H](C)[C@H]12.[Cl-].[Cl-]`, the MIC50 amounted to 0.5 µg/mL and the MIC90 worked out at 1 µg/mL.

For `C[C@@H](O)[C@H]1C(=O)N2C(C(=O)O)=C(c3ccc4c(c3)-c3ccc(C[N+]56CC[N+](Cc7ccccc7)(CC5)CC6)cc3C4=O)[C@H](C)[C@H]12.[Cl-].[Cl-]`, the MIC50 worked out at 1 µg/mL and the MIC90 was 2 µg/mL.

In the case of `C[C@@H](O)[C@H]1C(=O)N2C(C(=O)O)=C(c3ccc4c(c3)-c3ccc(C[N+]56CC[N+](CC(=O)Nc7nccs7)(CC5)CC6)cc3C4=O)[C@H](C)[C@H]12.[Cl-].[Cl-]`, the MIC50 was found to be 2 µg/mL and the MIC90 came to 4 µg/mL.
